Here are results for twelve molecules from patent US20190330607A1, “USE OF A SUGAR TOLERANT BETA-GLUCOSIDASE” (Universitè de Liége, priority 2016, published 2019).

What all share (assay type): biochemical
For data set [1], the system named is BglC (beta-glucosidase of Streptomyces scabies 87-22). Description: Relative enzyme activity of BglC with p-NPβG as substrate in presence of tested reagent. The procedure:
(§1) Relative enzyme activity was determined using p-nitrophenyl-β-D-glucopyranoside (p-NPβG) as substrate. The reaction mixture (200 μL) containing 50 mM HEPES buffer (pH 7.5), 0.2 μM of purified BglC and the tested reagent was incubated 10 minutes at 25° C. before addition of 1 mM p-NPβG. The reaction was carried out at 25° C. for 2 minutes and stopped by addition of 100 μL of 2 M Na2CO3. All assays were performed under these conditions, unless otherwise indicated. The release of p-nitrophenol (p-NP) was measured at 405 nm with a TECAN Infinite® 200 PRO. The activity assayed in absence of the tested reagent was recorded as 100%.

Data set [2] can be described thus: Kinetic analysis of BglC on cellobiose (glucose released, D-Glucose HK Assay Kit). The procedure: Kinetic parameters of BglC (Km and kcat) were determined by measuring the glucose released at various cellobiose concentrations in 50 mM HEPES buffer pH 7.5 at 26° C. Reaction time of 7 min was chosen to ensure initial rates of hydrolysis. The glucose released was determined using the D-Glucose HK Assay Kit from Megazyme (Ireland). Data were fitted to the Henri-Michaelis-Menten equation using the GraphPad Prism 5 software.

Data set [3] can be described thus: Time course of cellobiose hydrolysis by BglC over 7 days, HPLC. The procedure:
Glucose and cellobiose analysis was performed by HPLC on an Aminex HPX-87P Column (300×7.8 mm) heated to 80° C. with H2O as eluent (flow rate 0.6 mL/min). Peaks were detected by refractive index detector (Waters 2414).
The tolerance of BglC to glucose was further investigated during prolonged reaction time (7 days). Cellobiose and glucose quantification were performed by HPLC (FIG. 5). 80% of cellobiose was hydrolyzed in 48 h (FIG. 5).

The nature of data set [4]: Effect of temperature and pH on BglC activity (p-NPβG). The procedure:
as §1
The optimal temperature was determined by measuring the relative enzyme activity of BglC in HEPES 50 mM pH 7.5 at 20, 25, 30, 37 and 42° C. To measure the effect of pH on activity of BglC, relative activity was essayed in the range of pH 5.0-6.5 (50 mM MES buffer), pH 7.0-8.5 (50 mM HEPES buffer) and pH 9-10 (50 mM CHES buffer) at 25° C.

Data set [5] in a line: Substrate specificity of BglC by thin layer chromatography. The settings on record: 30° C. The procedure: The cleavage ability of BglC was tested against different cello-oligosaccharides (cellobiose, cellotriose, cellotetraose, cellopentaose and cellohexaose (Megazyme; Ireland)) or different disaccharides (lactose, saccharose, maltose, threalose and turanose). Reaction mixtures (100 μL) containing 50 mM HEPES buffer pH 7.5, 0.4 μM of purified BglC, 6.25 mM of cello-oligosaccharides or 12.5 mM of disaccharides were incubated at 30° C. 15 μL of each sample were collected at 0, 15, 30 and 60 min than heated at 98° C. for 5 min to stop the reaction. Each sample was spotted onto aluminum-backed Silica gel plate (Sigma). The plates were developed with chloroform-methanol-acetic acid-water solvent (50:50:15:5, vol/vol), air dried, dipped in 5% H2SO4 in ethanol and finally heated over a hot plate until visualization of carbohydrate spots.

[6] abbreviates: reagent 10 mM, activity without additive = 100%.
Setting [7] is: reagent 10%, activity without additive = 100%.
Where [8] appears, read: Oses (15%), control = 100%, p-NPβG substrate.
[9] abbreviates: substrate cellobiose, 50 mM HEPES pH 7.5, 26° C.

Where two headings read alike, the source gives them in different places.

On to `O[C@H](CS)[C@H](O)CS` (racemic) [DTT, dithiothreitol], for which the “Relative initial rate of hydrolysis (%)” value in data set [1] (setting [6]) worked out at 116 ± 5%.

As for `O=C(O)CN(CCN(CC(=O)O)CC(=O)O)CC(=O)O` [EDTA, ethylene diamine tetraacetic acid], the “Relative initial rate of hydrolysis (%)” value in data set [1] (setting [6]) is listed as 98 ± 15%.

As for `CCO` [Ethanol, ethanol], in data set [1] (ethanol 0 to 40% tested (FIG. 6)), the “ethanol concentration with maximal enhancing activity” value came out at 15%. The “Relative initial rate of hydrolysis (%)” value in data set [1] (setting [7]) was 218 ± 6%.

For `O=C(CO)[C@@H](O)[C@H](O)[C@H](O)CO` [Fructose, fructose], in data set [1] (setting [8]), the “Relative initial rate of hydrolysis (%)” value amounted to 178 ± 9%.

For the molecule `O=C[C@H](O)[C@@H](O)[C@@H](O)[C@H](O)CO` [Galaclose, galactose], the “Relative initial rate of hydrolysis (%)” value in data set [1] (setting [8]) amounted to 255 ± 9%.

`CO` [Methanol, methanol]: the “Relative initial rate of hydrolysis (%)” value in data set [1] (setting [7]) came to 65 ± 6%.

In the case of `[Cl-].[Na+]` [NaCl], the “activity of BglC kept” value in data set [1] (NaCl 500 mM (FIG. 7)) was “around 70%”. For the same molecule, the “activity of BglC” value in data set [1] (NaCl 1 M (FIG. 7)) is on record as “about 50%”. Moreover, the “effect on capacity of the enzyme to hydrolyze p-NPβG” value in data set [1] (NaCl below 100 mM (FIG. 7)) is given as “does not significantly alter”.

In the case of `CCCCCCCCCCCCOS(=O)(=O)[O-].[Na+]` [SDS], the “Relative initial rate of hydrolysis (%)” value in data set [1] (setting [6]) was 64 ± 3%.

As to `OC[C@@H](O)[C@@H](O)[C@H](O)[C@@H](O)CO` [Sorbitol, sorbitol], in data set [1] (setting [8]), the “Relative initial rate of hydrolysis (%)” value is 202 ± 1%.

As to `NC(N)=O` [Urea, urea], in data set [1] (setting [6]), the “Relative initial rate of hydrolysis (%)” value stood at 103 ± 13%.

Regarding `O=C[C@H](O)[C@@H](O)[C@H](O)CO` [Xylose, xylose], the “Relative initial rate of hydrolysis (%)” value in data set [1] (setting [8]) came to 340 ± 20%. Moreover, the “maximal activity of BglC” value in data set [1] (xylose 0.3 to 1.6 M (FIG. 4)) was 300-350%.

B1: BglC: recombinant His-tagged beta glucosidase of Streptomyces scabies 87-22, SEQ ID NO:2 (protein, listed as Streptomyces scabiei)
chain: MPEPVNPATPVTFPPAFLWGAATSAYQIEGAVREDGRTPSIWDTFSHTPGKTAGGENGDIAVDHYHRYRDDVAMMADLGLNAYRFSVSWSRVQPTGRGPAVQKGLDFYRRLVDELLAKGIKPAVTLYHWDLPQELEDAGGWPERDIVHRFAEYARIMGEALGDRVEQWITLNEPWCTAFLGYGSGVHAPGRTDPVASLRAAHHLNVAHGLGVSALRSAMPARNSIAVSLNSSVVRPITSSPEDRAAARKIDDLANGVFHGPMLHGAYPETLFAATSSLTDWSFVRDGDVATAHQPLDALGLNYYTPALVGAADAGLEGPRADGHGASEHSPWPAADDVLFHQTPGERTEMGWTIDPTGLHELIMRYAREAPGLPMYVTENGAAYDDKMDADGRVHDPERIAYLHGHLRAVRRAIAEGADVRGYYLWSLMDNFEWAYGYGKRFGAVYVDYATLTRTPKSSAHWYGQAAKTGALPPLAPAPA
modifications: His6 tag
As to B1, the Vmax in data set [2] was determined as 7.3 µmol/min/mg. Moreover, in data set [2] (setting [9]), the Km came to 770 µM, the maximum rate (Vmax) came to 7.3 µmol/min/mg and the kcat was found to be 6.67 s⁻¹. Further, the transglycosylation activity entry in data set [3] (between glucose and cellobiose, 7 days reaction, glucose only product detected) is “no or reduced transglycosylation activity”. This molecule gave a cellobiose hydrolyzed in data set [3] (in 48 h (FIG. 5)) of 80%. The “optimal pH” value in data set [4] (25° C., pH 5-10 tested) was “around 7.5”. Besides, the “activity relative to maximal activity” value in data set [4] (42° C., HEPES 50 mM pH 7.5 (FIG. 3A)) is 10%. Further, the “hydrolysis of cellobiose and cello-oligosaccharides (cellotriose to cellohexaose)” value in data set [5] (6.25 mM substrate, 0.4 μM BglC, 0-60 min (FIG. 2)) is reported as “able to generate glucose”. In data set [5] (12.5 mM disaccharides), the “hydrolysis of other disaccharides (saccharose, maltose, threalose, turanose)” value is recorded as “did not reveal hydrolysis”. Moreover, the hydrolysis of lactose entry in data set [5] (12.5 mM, compared with cellobiose or cello-oligosaccharides) is “much less efficiency”.
